Experimental data reported in a melting point compilation (Tetko et al.; mined from patent text by program, amines drawn as free bases though some values may be those of a salt).

First: O=S1(=O)c2ccccc2N(c2cc(F)cc(F)c2)c2ccccc21
Second: CCOC(=O)Cc1c([N+](=O)[O-])cc(OCc2ccccc2)c2ccccc12
The melting point of the first is higher: 255 to 258 °C for the first, 128 to 130 °C for the second.

First: COc1cc(OCC(=O)N[C@H]2CCN(Cc3ccccc3)C2)ccc1C(=NN)C(=O)c1ccc(O)c(N)c1
Second: COC1C(N(C)S(C)(=O)=O)c2cc(OCc3ccccc3)ccc2OC1(C)C (stereo not drawn)
The melting point of the first is higher: 139 to 141 °C for the first, 119 to 121 °C for the second.

Compared with `Cc1ccnc(Cn2ccnc2)c1O`, `c1ccc(-c2nc(COc3ccc(CCCCn4ccnc4)cc3)cs2)cc1` is lower in melting point: 170 to 172 °C for the first, 93 to 94 °C for the second.

Compared with `CC(=O)Oc1ccc(C2COc3cc(OC(C)=O)cc(C)c3C2=O)cc1` (stereo not drawn), `COc1ccc(CC(=O)c2c(O)cc(OC)cc2OC)c(OC)c1` is lower in melting point: 143 to 145 °C for the first, 116 to 119 °C for the second.

Compared with `Oc1cc2c(c(Cl)c1Cl)C(O)C(C1CCCC1)C2` (stereo not drawn), `CN(Cc1ccc(F)cc1)C1CCN(c2ccc(C(=O)O)cc2)CC1` is higher in melting point: 158 to 160 °C for the first, 256 to 258 °C for the second.

First: COC(=O)CCSCCOC1OC(COC(C)=O)C(OC(C)=O)C(OC(C)=O)C1OC(C)=O (stereo not drawn)
Second: CC(C)(C)OC(=O)N1CC2(C[C@H]1C(=O)OCOC(=O)C(C)(C)C)SCCS2
The melting point of the first is higher: 81 to 82 °C for the first, 79.5 to 81 °C for the second.

First: C=C(C)C(=O)N1c2ccccc2Sc2ccc(OC)cc21
Second: O=C(c1cc(Cl)ccc1O)c1ccccc1F
The melting point of the first is higher: 91 to 92 °C for the first, 76 to 80.5 °C for the second.

First: COc1ccccc1-n1c(=O)[nH]c2c(C(N)=O)nc(-c3ccc(C(N)=O)cc3)nc21
Second: COc1c(-c2ccc(S(C)(=O)=O)cc2)cnn(-c2cccc(Cl)c2)c1=O
The melting point of the first is higher: > 350 °C for the first, 112 to 114 °C for the second.

Compared with `O=S(=O)(N=Cc1cccnc1)c1ccccc1`, `O=C1Cc2ccccc2N1Nc1ccncc1F` is higher in melting point: 123 °C for the first, 181 to 183 °C for the second.

Compared with `Cc1c(C(=O)Nc2ccc(N3CCC(N4CCOCC4)CC3)c(C#N)c2)cnn1-c1cccc(Cl)c1`, `O=c1[nH]c2ccccc2c(=O)n1CCN1CCC(c2c[nH]c3cc(F)ccc23)CC1` is higher in melting point: 210 °C for the first, 301 °C for the second.

Compared with `Cc1ccc(C(=O)NC(CC(C)C)C(=O)O)c(SSc2cc(C)ccc2C(=O)NC(CC(C)C)C(=O)O)c1` (stereo not drawn), `CCOC(=O)C1=C(C)NC(N)=C(C(=O)OC(C)C)C1c1cccc([N+](=O)[O-])c1` (stereo not drawn) is lower in melting point: 216 to 218 °C for the first, 175 to 176 °C for the second.

First: COc1ccc(Cn2nc(-n3cnn(Cc4ccc(F)cc4)c3=O)cc2C(=O)O)cc1
Second: O=C(O)c1cc(C(c2cc(F)ccc2F)S(=O)(=O)c2ccc(Cl)cc2)c(Cl)cn1 (stereo not drawn)
The melting point of the first is higher: 205 to 207 °C for the first, 94 to 96 °C for the second.

Compared with `Cc1ccc(S(=O)(=O)N2CCCC(S(=O)(=O)c3ccc(F)cc3)C2)cc1` (stereo not drawn), `CS(=O)(=O)NCCCC(c1cc(F)ccc1F)S(=O)(=O)c1ccc(Cl)cc1` (stereo not drawn) is lower in melting point: 186 °C for the first, 128 °C for the second.

First: Cc1c(CC(=O)O)oc2ccc(C(C)(C)C)cc12
Second: O=c1cc(Cl)c2cc(OC(F)(F)F)ccc2o1
The melting point of the first is higher: 169 to 170 °C for the first, 85 to 87 °C for the second.

First: CCc1nn(C)c2c1C(c1ccccc1)=NCC(C(=NO)C(=O)OC)=N2
Second: Cn1cc(-c2ccc(C(=O)O)cc2)cn1
The melting point of the first is lower: 225 to 227 °C for the first, 274 to 275 °C for the second.

First: COC(C)(OC)C(=O)CCCCCCOc1ccc(-c2ccccc2)cc1
Second: CC(O)(CCF)c1ccc(-c2ccc(F)cc2)cc1 (stereo not drawn)
The melting point of the first is lower: 48 °C for the first, 90 to 92 °C for the second.

`CCOC(=O)N1CCn2c(nc(-c3ccncn3)cc2=O)C(NC(=O)c2ccccn2)C1` (racemic) and `COc1cc2c(c3c1OC(C)(C)C3)C(c1ccn(CC(=O)Nc3cccnc3)c(=O)c1)=NC(C)(C)C2` cannot be ordered by melting point: 250 to 252 °C for the first, 251 to 253 °C for the second.

Compared with `COc1ccc(NS(C)(=O)=O)cc1C(=O)O`, `CCOC(=O)CC(=O)c1cc(Cl)ccc1O` is lower in melting point: 160 to 163 °C for the first, 71.8 to 73.1 °C for the second.

Compared with `O=C(CCC(=O)N1CCCCC1)c1ccccc1`, `CC(C)(C(=O)O)c1cc(C(=O)c2ccccc2)ccc1O` is higher in melting point: 52 to 54 °C for the first, 207 °C for the second.

First: Fc1ccc(OCCCc2c[nH]cn2)cc1
Second: COc1ccc(CN(C)CCC2CN(C)C(=S)c3cccnc3O2)cc1 (stereo not drawn)
The melting point of the first is higher: 135 to 137 °C for the first, 128 to 130 °C for the second.

Compared with `COc1ccc2c(c1)COCc1cc(OC)c(OC)c(OC)c1-2`, `CCOC(=O)n1c(=O)n(CCCl)c2cc(OC)ccc21` is lower in melting point: 151 to 153 °C for the first, 116 to 118 °C for the second.

First: COc1cc(NC(=S)NCCN)cc(OC)c1
Second: CCOC(=O)c1cc2cc(CC)ccc2[nH]1
The melting point of the first is higher: 125 to 126 °C for the first, 94 °C for the second.

First: O=C(Nc1nnn[nH]1)c1cccc([N+](=O)[O-])c1
Second: Cc1cccnc1C(=O)c1[nH]c2cc(Cl)ccc2c1N
The melting point of the first is higher: 276 °C for the first, 171 to 172 °C for the second.

First: Nc1ccc(NCCc2ccccc2)cc1
Second: O=C(O)Cn1c(Cc2ccccc2)ccc(NC(=O)CCCc2ccccc2)c1=O
The melting point of the first is higher: 247 °C for the first, 159 to 161 °C for the second.

Compared with `O=C(NNc1ccc(NC(=S)Nc2ccc(NNC(=O)c3ccccc3)cc2)cc1)c1ccccc1`, `CCNC(=O)C=Cc1ccc(C(=C(CC)c2ccccc2)c2ccccc2)cc1` is higher in melting point: 185 to 187 °C for the first, 192 to 193 °C for the second.

First: CC(=O)OCCCCCn1ccc(=O)c(O)c1C
Second: CCCCCCCCCc1cnc(-c2ccc(O)c(F)c2)nc1
The melting point of the first is higher: 132 to 133 °C for the first, 46 to 47.5 °C for the second.

First: N#CNC(=S)Nc1ccc(C#N)cc1
Second: N#CCC(=O)Nc1ccc(C(F)(F)F)cc1
The melting point of the first is higher: > 250 °C for the first, 194 to 196 °C for the second.

Compared with `Cc1cccc2sc(=O)[nH]c12`, `CC(C)(C)NC(=O)Nc1ccc(-c2c[nH]c(=O)cn2)cc1` is higher in melting point: 207 to 208 °C for the first, > 300 °C for the second.

First: Cc1c(Cl)cc(Cl)cc1Br
Second: COC(=N)c1cc(Oc2ccc(C(F)(F)F)cc2Cl)ccc1[N+](=O)[O-]
The melting point of the first is higher: 84 to 85 °C for the first, 46 °C for the second.

First: FC(F)(F)Oc1cccc(CN2CCC(Nc3nnc(C(F)(F)F)s3)CC2)c1
Second: Fc1ccc(COc2ncc(F)c(N=CN3CCCC3)n2)cc1
The melting point of the first is higher: 116 °C for the first, 102 to 103 °C for the second.

First: Fc1ccc(C(OP2OCCO2)(c2ccc(F)cc2)c2ccccc2F)cc1
Second: Brc1ccc(-n2ccc3cc(OCc4ccccc4)ccc32)cc1
The melting point of the first is higher: 163 to 164 °C for the first, 118 °C for the second.

First: CCNc1c(C(=O)OCC)c(C)nc2nccnc12
Second: Cc1nc(-c2ccc(OCC(C)C)c([N+](=O)[O-])c2)sc1C(=O)OCC(C)C
The melting point of the first is lower: 72 to 74 °C for the first, 112 to 113 °C for the second.

First: Cn1cccc(C(=O)Nc2ccc3c(c2)NC(=O)/C3=C\c2ccc[nH]2)c1=O
Second: COCOc1cc(F)ccc1-c1cc(-c2cccc(NC(=O)CN(C)C)c2)c(C#N)c(NC(=O)c2ccco2)n1
The melting point of the first is higher: > 300 °C for the first, 168 to 169 °C for the second.

First: O=[N+]([O-])C=C1NCCN1C/C=C\Cl
Second: CN1CC(OC(=O)C(c2ccccc2)c2ccccc2)CNC1=N[N+](=O)[O-] (stereo not drawn)
The melting point of the first is lower: 117 to 118 °C for the first, 187 °C for the second.

Compared with `CNC(=O)c1ccc(-n2nc(C(=O)NC3(C(=O)O)C4CC5CC(C4)CC3C5)cc2-c2c(OC)cccc2OC)c2ccccc12` (stereo not drawn), `COc1ccc2c(c1)cc(Cc1cc3cc(OC)ccc3n1S(=O)(=O)c1ccccc1)n2S(=O)(=O)c1ccccc1` is lower in melting point: 170 °C for the first, 159 to 160 °C for the second.

Compared with `NC1=C(C(=O)c2cccs2)C2=C(CCC2)S1=O` (stereo not drawn), `CC(C)(C)OC(=O)NCc1cccc(Cn2ccc(OCc3ccc(F)cc3F)c(Br)c2=O)c1` is lower in melting point: 133 to 134 °C for the first, 80 to 84 °C for the second.

Work on `O=C(CCCCC1CCSS1)N1CCSC1` (stereo not drawn) yielded a melting point of 40 to 41 °C.
